The subject of assay [1] is GAL1-AUR1 strain. The assay is described as follows: growth (optical density) hypersensitivity of GAL1-AUR1 strain after promoter switch-off, compared to wild type. It is filed as cell-based, S. cerevisiae. The settings on record: GAL1 promoter switched OFF (galactose to glucose), final optical density vs wt. From the text:
(§1) By “viable” we mean cells that have grown sufficiently so that when gene expression of an essential gene is turned off, meaningful measurements and kinetic analysis may be made. The cells are preferably allowed to grow into early stationary phase by which time a final optical density reading is taken. A reduced optical density compared to no drug or no switchoff controls is interpreted as growth inhibition.
However no reduction in growth will be observed as long as the amount of active Erg11p is high enough not to be rate limiting for growth (above the threshold, see FIG. 2) In our example the fluconazole concentration is insufficient to reduce Erg11p activity below this threshold. The situation for a GAL1-driven ERG11 gene is different however: At time 0 the gene's engineered promoter is switched from the ON state (because of the high expression of a GAL1 promoter this level is usually higher than for the native promoter) to the OFF state by changing the carbon source in the culture. From this timepoint on no new mRNA is transcribed and—after decay of the mRNA—no new Erg11 protein is being synthesized. Erg11 concentrations are now falling due to the dilution of the enzyme into new daughter cells and protein decay of Erg11p. […] This is reflected by a lower final optical density of the culture. […] Therefore the threshold-line is crossed earlier, as no new Erg11p can be synthesized. […]

Assay [2] deals with GAL1-ERG11 strain. The assay is described as follows: growth (optical density) hypersensitivity of GAL1-ERG11 strain after promoter switch-off, compared to wild type. The class given is cell-based, S. cerevisiae. Particulars: GAL1 promoter switched OFF (galactose to glucose), final optical density vs wt.
Source text: as §1
However no reduction in growth will be observed as long as the amount of active Erg11p is high enough not to be rate limiting for growth (above the threshold, see FIG. 2) In our example the fluconazole concentration is insufficient to reduce Erg11p activity below this threshold. The situation for a GAL1-driven ERG11 gene is different however: At time 0 the gene's engineered promoter is switched from the ON state (because of the high expression of a GAL1 promoter this level is usually higher than for the native promoter) to the OFF state by changing the carbon source in the culture. From this timepoint on no new mRNA is transcribed and—after decay of the mRNA—no new Erg11 protein is being synthesized. Erg11 concentrations are now falling due to the dilution of the enzyme into new daughter cells and protein decay of Erg11p. […] This is reflected by a lower final optical density of the culture. […] Therefore the threshold-line is crossed earlier, as no new Erg11p can be synthesized. Compared to the wild-type cell, this is seen as hypersensitivity (larger reduction in growth in the presence of an identical concentration of drug). Simplified one can explain this as a reduced amount of cell-doublings before rate-limiting conditions occur.
For target and compound evaluation the hypersensitivity has to be specific for certain drug-target combinations. Therfore the method was tested and validated with another unrelated known drug-target combination: The AUR1 gene encodes inositolphosphorylceramide (IPC) synthase, an essential enzyme of the fungal sphingolipid biosynthetic pathway (Nagiec et al, J.Biol.Chem., 1997, 272,15, 9809-9817). […]

Assay [3] has as its target Erg11p, lanosterol C-14-demethylase (Saccharomyces cerevisiae, UniProt P10614). Particulars: cited from earlier work.
Assay [4] concerns the target T1, inositolphosphorylceramide (IPC) synthase (AUR1) (Saccharomyces cerevisiae, UniProt P36107).
T1 sequence (P36107 1-401): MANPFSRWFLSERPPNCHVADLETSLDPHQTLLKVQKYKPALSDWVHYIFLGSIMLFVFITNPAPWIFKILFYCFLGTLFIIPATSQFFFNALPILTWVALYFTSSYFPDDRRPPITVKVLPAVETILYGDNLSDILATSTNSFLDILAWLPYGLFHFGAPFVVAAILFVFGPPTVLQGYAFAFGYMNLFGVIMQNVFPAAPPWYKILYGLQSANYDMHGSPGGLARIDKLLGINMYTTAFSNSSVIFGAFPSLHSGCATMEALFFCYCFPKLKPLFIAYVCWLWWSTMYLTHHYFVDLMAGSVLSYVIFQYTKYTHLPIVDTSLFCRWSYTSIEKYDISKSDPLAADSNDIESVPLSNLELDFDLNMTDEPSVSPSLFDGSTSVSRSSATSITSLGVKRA
T1 sequence (Q06346 1-221 partner): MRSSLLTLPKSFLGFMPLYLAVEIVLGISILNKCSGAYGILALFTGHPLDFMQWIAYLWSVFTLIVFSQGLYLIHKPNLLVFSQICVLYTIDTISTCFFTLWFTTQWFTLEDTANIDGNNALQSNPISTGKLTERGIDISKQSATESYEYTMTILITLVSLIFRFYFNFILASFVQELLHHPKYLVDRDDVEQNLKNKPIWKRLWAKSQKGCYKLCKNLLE
The settings on record: cited from earlier work.

In assay [5] the target is Erg1p, squalene epoxidase (Saccharomyces cerevisiae, UniProt P32476). Particulars: cited from earlier work.
Assay [6] deals with GAL1-ERG1 strain. The assay is described as follows: growth (optical density) hypersensitivity of GAL1-ERG1 strain after promoter switch-off, compared to wild type. It is filed as cell-based, S. cerevisiae. Particulars: GAL1 promoter switched OFF, FIG. 5.
Source text: as §1
It follows that the hypersensitive reaction towards an inhibitor of one enzyme in a pathway may be extended to inhibitors of the whole pathway. This is due to the linear arrangement of enzymes in a biochemical cascade of reactions where one enzyme provides substrate for the next. A reduced substrate supply can act synergistically with a reduced enzyme level. Thus the activity of the almost rate-limiting enzyme Erg11p (after switchoff) will be reduced further by withdrawal of its substrate normally provided by Erg1p, squalene epoxidase, another enzyme of the sterol biosynthetic pathway, through several biochemical steps. Erg1p is now inhibited by terbinafine. Any such pathway specific hypersensitivity allows the categorisation of (uncategorised) genes into the same pathway as the switched off gene. To investigate this, we examined Erg1p. […] This pathway-specific analysis tool will be extremely useful for the classification of novel inhibitors (with unknown mode of action).

Numbered stars: 1 amine (or outer) side, 2 acyl side, 3 side chain; on linkers, the order of the positions; unused ones are H or OH. Square brackets hold non-standard residues; d marks the D form. Peptide text beside a SMILES is read from it. X1 = CC[C@@H](C)[C@@H](O[*:1])C(=O)[*:2]; NMeVal(β-OH) = CN[C@H](C(=O)O)C(C)(C)O; NMeF = CN[C@@H](Cc1ccccc1)C(=O)O; aIle = CC[C@@H](C)[C@H](N)C(=O)O; NMeV = CN[C@H](C(=O)O)C(C)C

Erg11p, lanosterol C-14-demethylase, sequence (P10614 whole entry): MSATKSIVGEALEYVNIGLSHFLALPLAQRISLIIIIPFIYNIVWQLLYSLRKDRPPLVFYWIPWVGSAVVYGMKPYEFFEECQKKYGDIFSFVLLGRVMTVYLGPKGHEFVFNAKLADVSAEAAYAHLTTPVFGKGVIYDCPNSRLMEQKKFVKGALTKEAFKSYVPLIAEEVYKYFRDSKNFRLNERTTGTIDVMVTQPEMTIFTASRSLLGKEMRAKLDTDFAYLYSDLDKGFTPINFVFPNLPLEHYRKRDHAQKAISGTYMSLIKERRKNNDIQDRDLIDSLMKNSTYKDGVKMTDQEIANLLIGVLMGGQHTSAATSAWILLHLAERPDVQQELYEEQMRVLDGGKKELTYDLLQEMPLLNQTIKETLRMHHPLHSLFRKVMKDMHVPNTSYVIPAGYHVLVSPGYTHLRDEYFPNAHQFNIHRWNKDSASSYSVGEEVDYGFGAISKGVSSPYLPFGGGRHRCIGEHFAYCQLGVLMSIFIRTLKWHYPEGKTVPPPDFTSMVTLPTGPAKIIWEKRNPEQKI
Erg1p, squalene epoxidase, sequence (P32476 whole entry): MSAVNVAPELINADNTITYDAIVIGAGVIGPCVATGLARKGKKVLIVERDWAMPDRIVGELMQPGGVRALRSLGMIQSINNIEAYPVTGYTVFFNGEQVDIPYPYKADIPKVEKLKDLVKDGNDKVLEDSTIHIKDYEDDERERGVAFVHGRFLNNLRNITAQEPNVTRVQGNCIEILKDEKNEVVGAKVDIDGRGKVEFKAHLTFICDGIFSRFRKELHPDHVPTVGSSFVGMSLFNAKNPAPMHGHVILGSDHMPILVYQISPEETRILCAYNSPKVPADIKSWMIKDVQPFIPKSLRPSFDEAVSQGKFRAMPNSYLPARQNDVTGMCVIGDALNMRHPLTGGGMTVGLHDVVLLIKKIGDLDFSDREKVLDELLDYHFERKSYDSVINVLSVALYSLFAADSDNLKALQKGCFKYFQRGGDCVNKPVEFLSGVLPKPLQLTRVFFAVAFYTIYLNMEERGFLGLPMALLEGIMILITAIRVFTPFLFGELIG

For the compound `OC(Cn1cncn1)(Cn1cncn1)c1ccc(F)cc1F` [fluconazole], the “hypersensitivity (larger reduction in growth than wild type at identical drug concentration)” value in assay [1] was “neither did GAL1-AUR1 show hypersensitivity”; in assay [2], “prominent hypersensitive response”. Further, the enzyme inhibition result in assay [3] is listed as “inhibits Erg11p”.

In the case of `CC[C@@H](C)[C@@H]1NC(=O)[C@@H]2CCCN2C(=O)[C@H](Cc2ccccc2)N(C)C(=O)[C@H](Cc2ccccc2)NC(=O)[C@H](C(C)C)N(C)C(=O)[C@@H]([C@H](C)CC)OC(=O)[C@H](C(C)(C)O)N(C)C(=O)[C@H](CC(C)C)NC(=O)[C@H](C(C)C)N(C)C1=O` [aureobasidinA] (cyclo(F[NMeF]P[aIle][NMeV]L[NMeVal(β-OH)][X1][NMeV])), the “hypersensitivity (larger reduction in growth than wild type at identical drug concentration)” value is recorded as “prominent hypersensitive response” in assay [1] and “no increased sensitivity” in assay [2]. In assay [4], the “potency of enzyme inhibition” value was “sub nanomolar potency”.

With `CN(C/C=C/C#CC(C)(C)C)Cc1cccc2ccccc12` [terbinafine], the enzyme inhibition result in assay [5] was “inhibited”; in assay [3], “Erg11p is not”. In addition, the “hypersensitivity (larger reduction in growth than wild type at identical drug concentration)” value is reported as “as hypersuscepible to terbinafine as GAL1-ERG1” in assay [2] and “hypersuscepible” in assay [6].

Source of the values: patent publication US6630321B1, “Method for identifying a compound that modulates the function of the gene product of an essential gene” (priority 1999, dated 2003).
